Assay [1] concerns MDA-MB-231. The assay can be described thus: Fluorometric resazurin-based cell proliferation assay, MDA-MB-231. The settings on record: Homo sapiens. The protocol: (§1) To evaluate the anti-proliferative and cytotoxic effect, respectively, of the compounds, a fluorometric resazurin-based cell viability assay was used. Human cancer and non-cancer cell lines (primarily breast cancer) were seeded with low densities into 96-well plates (1,500-20,000 cells per well), and were allowed to adhere for 24 h. Subsequently, the compounds—dissolved to appropriate concentrations in medium—were added to the cells and incubated for 4-72 h. In case the compound treatment was shorter than 72 h, the incubation solution was discarded, cells were rinsed once with cell culture medium and were allowed to proliferate in compound-free medium until 72 h were reached. Subsequently, medium was replaced by 50 μM resazurin in medium, and the cells were incubated for 2 h. Finally, the conversion of resazurin to resorufin by viable, metabolically active cells was measured using a Synergy 2 multiwell plate reader (BioTek, Bad Friedrichshall, Germany) with 540 nm excitation and 590 nm emission filter setting.
(§2) The cytostatic/cytotoxic effects of the new molecules according to this invention were evaluated by using a fluorometric cell proliferation assay. A panel of cell lines (most of them breast cancer) were treated for 4-72 hours with compound. The fluorometric read-out for cell viability was done after 72 hours in any case.

The subject of assay [2] is T-47D. In words: Fluorometric resazurin-based cell proliferation assay, T-47D. Also noted: species or system human. The settings on record: for IC50: Homo sapiens, T47D, read-out: IC50 T-47D. As to the method:
as §1, §2

In assay [3] the test system is MDA-MB-468. The assay can be described thus: Fluorometric resazurin-based cell proliferation assay, MDA-MB-468. The settings on record: Homo sapiens, read-out: IC50 MDA-MB-468. As to the method:
as §1, §2
A general note: Alamar Blue is a resazurin reagent that responds to reducing activity.

Assay [4] concerns MCF-7. In words: cells. The format is cell-based, human. The settings on record: 72 h compound treatment. The protocol: as §1, §2
Assay [5] has as its system HT-29. In words: Fluorometric resazurin-based cell proliferation assay, HT-29. Also noted: species or system human. The settings on record: 72 h compound treatment. As to the method:
as §1, §2

Assay [6] has as its system breast cancer cell lines (MCF-7, MDA-MB-468). In words: Proteome analysis by SILAC. The settings on record: various breast cancer cell lines. The assay is classed as cell-based, human. As to the method: SILAC was used for the examination of compound-mediated protein deregulations in the cells. In a first step, the incorporation rate of ^13C-labeled L-arginine (“heavy” medium) was determined for the used cell lines.
After finished incubation, the cells were harvested and lysed. […] The gel was cut into gel slices and in-gel digested with trypsin. The samples were measured with a LTQ Orbitrap Velos (Thermo Scientific) coupled with a nano-HPLC. The resulting mass spec-data were analyzed using the MaxQuant software.

Assay [7] concerns caspases 3 and 7 in breast cancer cell lines. In words: Apoptosis assay, effector caspases 3 and 7. The assay is classed as cell-based, human. The settings on record: several breast cancer cell lines.
Protocol: Compound-mediated induction of apoptosis was examined using comercially available luminescent caspase assays (Promega, Mannheim, Germany). Human cancer and non-cancer cell lines (primarily breast cancer) were seeded with densities depending on the incubation time into 96-well plates (5,000-20,000 cells per well for 48 h incubations; 15,000-40,000 cells per well for 16-24 h incubations), and were allowed to adhere for 24 h. Subsequently, the compounds—dissolved to appropriate concentrations in medium—were added to the cells in 70 μL per well. Cells were incubated for 16-48 h under standard growth conditions. For the last hour of incubation, 10 μL/well of 8× resazurin solution (400 μM) were added in order to multiplex the caspase activities with the cell number/cell viability. When the incubation was finished, conversion of resazurin to resorufin was measured as described above. […] Luminescence read-out was done using a Synergy 2 multiwell plate reader (BioTek, Bad Friedrichshall, Germany).
Cells were treated with the indicated compound concentrations for 24 h (A, C) and 48 h (B, D), respectively. Subsequently, activation of effector caspases 3/7 was measured using a luminescence-based caspase-Glo™ assay kit (Promega), and cell viability was fluorimetrically detected using a Resazurin-based cell viability assay. […]
Assay [8] relates to 184B5. In words: Fluorometric resazurin-based cell proliferation assay, 184B5. The settings on record: Homo sapiens, 72 h compound treatment. As to the method:
as §1, §2

For assay [9], the system named is panel of cell lines (most of them breast cancer). In words: Cell proliferation assay, statements over the panel of cell lines. The settings on record: 72 h treatment. The format is cell-based, human. As to the method: as §1, §2
Assay [10] has as its system SK-N-MC. In words: Fluorometric resazurin-based cell proliferation assay, SK-N-MC. The settings on record: Homo sapiens, 72 h compound treatment. The protocol:
as §1, §2

In assay [11] the test system is HEK293. The assay can be described thus: Fluorometric resazurin-based cell proliferation assay, HEK293. The settings on record: Homo sapiens, 72 h compound treatment. As to the method: as §1, §2
Setting [12] is: MDA-MB-231, 72 h, read-out: IC50 MDA-MB-231.

We go through nine compounds from patent US20150238626A1, “RECEPTOR LIGAND LINKED CYTOTOXIC MOLECULES” (ONTOCHEM GMBH, priority 2012, published 2015).

Where two headings read alike, the source gives them in different places.

Consider `CCC(C)[C@H](NC(=O)[C@H]1CCCCN1C)C(=O)N(C)[C@H](C[C@@H](OC(C)=O)c1nc(C(=O)N[C@@H](Cc2ccc(F)cc2)C[C@H](C)C(=O)O)cs1)C(C)C` (stereo partly drawn) [OC 501], for which the half-inhibitory concentration (IC50) (as a rule, the concentration at which inhibition is half-maximal) in assay [1] (setting [12]) was 7.2 nM; in assay [2] (72 h) it was 5.4 nM; in assay [3] (MDA-MB-468, 72 h) it was 3.6 nM; in [4] (Homo sapiens, MCF7), 4.1 nM; in assay [5] (Homo sapiens, HT-29), 1.2 nM.

In the case of `CCC(C)[C@H](NC(=O)[C@H]1CCCCN1C)C(=O)N(C)[C@H](C[C@@H](OC(C)=O)c1nc(C(=O)N[C@@H](Cc2ccc(F)cc2)C[C@H](C)C(=O)NCCSSc2ccccn2)cs1)C(C)C` (stereo partly drawn) [OC 169], the IC50 was 31 nM in [1] (setting [12]); 18.7 nM in assay [2] (72 h); 18.7 nM in assay [3] (MDA-MB-468, 72 h); 26.1 nM in [8]; 18.4 nM in assay [4] (Homo sapiens, MCF7). The “regulation of protein expression (SILAC)” value in assay [6] was “comparable protein regulations”. Also, the “induction of apoptosis (caspase 3/7 activity)” value in assay [7] is on record as “induction of apoptotic cell death mechanisms”.

Regarding `CCC(C)[C@H](NC(=O)[C@H]1CCCCN1C)C(=O)N(C)[C@H](C[C@@H](OC(C)=O)c1nc(C(=O)N[C@@H](Cc2ccccc2)C[C@H](C)C(=O)O)cs1)C(C)C` (stereo partly drawn) [OC 509], the IC50 in [4] (Homo sapiens, MCF7) turned out to be 0.34 nM.

For `CCCO[C@H](C[C@H](C(C)C)N(C)C(=O)[C@@H](NC(=O)[C@H]1CCCCN1C)C(C)CC)c1nc(C(=O)N[C@@H](Cc2ccccc2)C[C@H](C)C(=O)O)cs1` (stereo partly drawn) [OC 503], the IC50 in assay [1] (setting [12]) was determined as 10.9 nM; in assay [2] (72 h) it was 8.3 nM; in assay [3] (MDA-MB-468, 72 h), 8.2 nM; in assay [4] (Homo sapiens, MCF7), 4.2 nM; in assay [5] (Homo sapiens, HT-29) it was 0.8 nM.

Turning to `CC[C@H](C)[C@H](NC(=O)[C@H]1CCCCN1C)C(=O)N(COC(=O)CC(C)C)[C@H](C[C@@H](OC(C)=O)c1nc(C(=O)N[C@@H](Cc2ccc(O)cc2)C[C@H](C)C(=O)O)cs1)C(C)C` [Tubulysin A, reference compound], the IC50 in [4] was found to be 0.6 nM; in [5], 0.75 nM.

Turning to `CC(=O)O[C@H]1C(=O)[C@@]2(C)[C@H]([C@H](OC(=O)c3ccccc3)[C@]3(O)C[C@H](OC(=O)[C@H](O)[C@@H](NC(=O)c4ccccc4)c4ccccc4)C(C)=C1C3(C)C)[C@]1(OC(C)=O)CO[C@@H]1C[C@@H]2O` [Paclitaxel, reference compound], the IC50 was 35.1 nM in assay [1] (MDA-MB-231, read-out: IC50 MDA-MB-231, 72 h compound treatment); 30.7 nM in assay [2] (72 h compound treatment); 31.1 nM in assay [3] (MDA-MB-468, 72 h compound treatment); 25.5 nM in assay [4] (Homo sapiens, MCF7).

For the compound `CCCO[C@H](C[C@H](C(C)C)N(CCC)C(=O)[C@@H](NC(=O)[C@H]1CCCCN1C)C(C)CC)c1nc(C(=O)N[C@@H](Cc2ccc(O)cc2)C[C@H](C)C(=O)O)cs1` (stereo partly drawn) [OC 515], the IC50 in assay [2] (72 h) and in [8] was 0.09 nM in each case. The “higher efficacy compared to the reference compound Paclitaxel” value in [2] (T-47D cells, 72 h treatment) is reported as “up to 300 fold”.

Regarding `CCCO[C@H](C[C@H](C(C)C)N(CCC)C(=O)[C@@H](NC(=O)[C@H]1CCCCN1C)C(C)CC)c1nc(C(=O)N[C@@H](Cc2ccc(O)cc2)C[C@H](C)C(=O)NCCSSc2ccccn2)cs1` (stereo partly drawn) [OC 516], in assay [2] (72 h), the 50% inhibitory concentration (IC50) was 0.2 nM.

Regarding `CCC(C)[C@H](NC(=O)[C@H]1CCCCN1C)C(=O)N(COC(=O)CC(C)C)[C@H](C[C@@H](OC(C)=O)c1nc(C(=O)N[C@@H](Cc2ccc(O)cc2)C[C@H](C)C(=O)NCCSSc2ccccn2)cs1)C(C)C` (stereo partly drawn) [OC 517], the half-inhibitory concentration (IC50) in [1] (setting [12]) turned out to be 1.6 nM; in [2] (72 h), 4.9 nM; in assay [10] it was 1.1 nM; in assay [3] (MDA-MB-468, 72 h) it was 1 nM; in assay [11] it was 5.9 nM; in [8], 6.2 nM. In addition, the IC50 in assay [4] (Homo sapiens, MCF7) amounted to 1.9 nM. In addition, in [9], the “activity compared to Paclitaxel” value was “several folds more active than Paclitaxel”.
